Test system: CYP3A4
Test: CYP3A4 induction assay (CYP 3A4 mRNA by qPCR in cryopreserved human hepatocytes)
Type: in vitro ADME
Conditions: 10 μM compound; for CYP3A4 Ind. (%): value in brackets: induction relative to prototypical inducer rifampicin = 100%
Description: CYP induction was evaluated in vitro by determining the expression levels of CYP 3A4 mRNA using the qPCR (quantitative polymerase chain reaction) assay. On day one, cryopreserved human hepatocytes were thawed in prewarmed (37° C.) thawing medium (cryopreserved hepatocyte recovery medium, Gibco™ CM 7000; Thermo Fisher Scientific), centrifuged (1000 g for 10 minutes) and resuspended in plating medium (Gibco™ CM3000—Williams Medium E supplemented with hepatocytes plating supplement pak-serum containing; Thermo Fisher Scientific). Cells were counted by trypan blue exclusion using a hemocytometer and adjusted to a cell density of […]. Thereafter, […] of cell suspension was aliquoted per well in a 96-well plate, resulting in 60,000 cells/well. Plates were shaken in the north-south and east-west direction during plating. Plated cells were incubated at 37° C./5% CO2 in a humidified cell culture incubator for 4-6 hours. During this time, incubation medium (Gibco™ CM4000, cell maintenance supplement pack; Thermo Fisher Scientific) was mixed with Gibco™ Geltrex™ (Thermo Fischer Scientific) at the appropriate Geltrex™ protein concentration. Following recovery, medium was removed from cells and replaced with freshly prepared incubation medium. Cells were incubated overnight in a cell culture incubator (37° C./5% CO2).
The next day the incubation medium was prepared by combining the hepatocyte maintenance supplement pack with Williams medium E. The medium was warmed to 37° C. 1000× dimethyl sulfoxide compound stocks were prepared to the desired concentrations. 10 mM compound stocks in dimethyl sulfoxide were diluted (1 μL to 1 mL CM4000; final concentration=10 μM). Overlay medium was aspirated and […] dose solution added to the desired labeled 96 well plate. Cells were returned to the humidified incubator overnight (37° C./5% CO2).
On day 3, incubation medium was warmed to 37° C., and the same process for compound preparation repeated as in day 2, i.e. 1000× dimethyl sulfoxide compound stocks were prepared to the desired concentration, diluted (1:1000) in warm incubation medium, and this freshly prepared medium was used to replace treatment medium. Cells were returned to the humidified incubator (37° C./5% CO2) overnight.
On day 4, RNA isolation was performed. Prior to RNA isolation, cell viability was assessed using presto blue reagent. 10× dilution of PrestoBlue™ reagent (Thermo Fisher Scientific) was prepared by mixing 1.4 mL PrestoBlue™ with 12.6 mL incubation medium. Medium was aspirated from cells, and 100 μL of cell viability medium (10× dilution of PrestoBlue™ reagent) added and incubated for 17 minutes. Cell viability was determined by measuring absorbance using a microplate reader (Spark® 10M Tecan Life Sciences). After this measurement, media was aspirated using a multichannel aspirator and a glass pipet to completely aspirate from each well. Plates were stored or immediately used for mRNA isolation. All surfaces were cleaned using RNase away. 2× Lysis buffer was well mixed after incubation at ambient temperature. Fresh lysis buffer was prepared by mixing 0.125 μL of 0.5 mM DTT with 4.875 μL 2× lysis buffer. 1× lysis buffer containing DTT was then prepared by adding 5 μL dilution buffer to the 2× lysis buffer and mixing thoroughly. Thereafter, cell lysates were prepared by adding 1× lysis buffer to each sample well (96-well plate). Samples were incubated for 3-6 minutes at ambient temperature while shaking (350-400 rpm) to lyse the cells. Cells were scrapped with tips, and cell lysate (80 μL) was transferred to each well of the mRNA Catcher PLUS™ plate (Thermo Fisher Scientific). mRNA Catcher PLUS™ plate containing samples was covered with adhesive plastic film plate cover and incubated at ambient temperature for 45-60 minutes for RNA hybridization.
After hybridization, lysate was aspirated from the cells. […]

## C=CC(=O)N1CCC([C@@H]2CCNc3c(C(N)=O)c(-c4ccc(Oc5ccccc5)cc4)nn32)CC1 [Compound A, reference compound]
  CYP3A4 Ind. (%): 125%

## C=CC(=O)N1CCN([C@@H]2CCNc3c2nn(-c2ccc(Oc4ccccc4)cc2)c3C(N)=O)CC1 [Example 6, (7R)-2-(4-phenoxyphenyl)-7-[4-(prop-2-enoyl)piperazin-1-yl]-4,5,6,7-tetrahydro-2H-pyrazolo[4,3-b]pyridine-3-carboxamide]
CYP3A4 mRNA fold change vs vehicle
  CYP3A4 Ind. fold: 0.9 fold
  CYP3A4 Ind. (%): −1.3%
